{"source": "patent US9090651B2", "about": "“Helix 12 directed pharmaceutical products” (ENDORECHERCHE, INC., priority 2004, dated 2015)", "key": {"Human Androgen Receptor": {"target": "T1, Human Androgen Receptor (Homo sapiens, UniProt P10275)", "T1 sequence (P10275 1-920)": "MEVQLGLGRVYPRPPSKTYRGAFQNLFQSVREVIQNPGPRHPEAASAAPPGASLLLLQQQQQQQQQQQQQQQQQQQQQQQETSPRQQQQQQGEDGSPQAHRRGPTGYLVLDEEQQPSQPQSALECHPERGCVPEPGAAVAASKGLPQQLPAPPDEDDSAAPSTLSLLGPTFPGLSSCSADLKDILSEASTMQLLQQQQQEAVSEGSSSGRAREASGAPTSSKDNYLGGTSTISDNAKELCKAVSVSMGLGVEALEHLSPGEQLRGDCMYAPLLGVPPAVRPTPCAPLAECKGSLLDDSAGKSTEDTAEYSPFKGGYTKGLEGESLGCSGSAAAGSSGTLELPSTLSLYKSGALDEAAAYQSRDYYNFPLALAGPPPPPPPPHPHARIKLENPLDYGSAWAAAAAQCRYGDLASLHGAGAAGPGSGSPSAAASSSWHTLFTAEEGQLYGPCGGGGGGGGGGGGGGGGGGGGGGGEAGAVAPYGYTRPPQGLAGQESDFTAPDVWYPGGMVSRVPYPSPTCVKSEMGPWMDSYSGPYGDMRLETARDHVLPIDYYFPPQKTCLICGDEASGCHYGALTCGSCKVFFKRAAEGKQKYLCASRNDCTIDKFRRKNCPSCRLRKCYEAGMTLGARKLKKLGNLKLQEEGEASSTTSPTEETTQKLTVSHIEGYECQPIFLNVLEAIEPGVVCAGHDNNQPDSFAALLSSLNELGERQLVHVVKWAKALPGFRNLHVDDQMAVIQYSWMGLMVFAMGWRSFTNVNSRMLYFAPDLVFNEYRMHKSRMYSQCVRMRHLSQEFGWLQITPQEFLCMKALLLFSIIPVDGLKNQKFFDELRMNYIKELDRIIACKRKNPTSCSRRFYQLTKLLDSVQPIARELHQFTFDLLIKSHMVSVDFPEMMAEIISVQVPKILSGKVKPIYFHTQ", "experiment": "Androgen receptor binding assay (hydroxylapatite, [3H]R1881, cytosol of transfected HEK-293 cells)", "conditions": "% RBA=100×IC50 R1881/IC50 compound, transfected cells"}, "[1]": {"system": "Shionogi mouse mammary carcinoma cells", "experiment": "Androgenic/antiandrogenic activity on DHT-stimulated Shionogi cell growth", "type": "cell-based"}, "[2]": {"conditions": "Mus musculus, read-out: Shionogi Antiandrogenic activity IC50 (nM), inhibition of DHT-stimulated Shionogi cell number"}, "[3]": {"conditions": "read-out: Shionogi Antiandrogenic activity IC50, inhibition of DHT-stimulated Shionogi cell number"}}, "note": "Where “and” joins values, the source holds several entries; their conditions need not be identical. Identical values can stand only once. Like-named read-outs stand apart in the source and are kept apart here.", "data": [{"compound": "CCC(CC)NCc1cc(CNC(CC)CC)cc(OCC[C@]23CCC4C(CCC5CC(=O)CC[C@@]54C)C2CC[C@@H]3O)c1", "note": "(stereo partly drawn) [EM-6452]", "values": [{"measurement": "Androgen Receptor Binding (%) Human RBA R1881 = 100", "setting": "Human Androgen Receptor", "value": 104, "unit": "%"}, {"measurement": "IC50", "setting": "[1]; [2]", "value": 1.8, "unit": "nM"}]}, {"compound": "CCC(NC1CCOCC1)c1cccc(OCC[C@]23CCC4C(CCC5Cc6n[nH]cc6C[C@@]54C)C2CCC3O)c1", "note": "(stereo partly drawn) [EM-6867]", "values": [{"measurement": "Androgen Receptor Binding (%) Human RBA R1881 = 100", "setting": "Human Androgen Receptor", "value": 11.3, "unit": "%"}, {"measurement": "IC50", "setting": "[1]; [2]", "value": 4.4, "unit": "nM"}]}, {"compound": "CCC(NC1CCOCC1)c1cccc(OCC[C@]23CCC4C(CCC5=CC(=O)CC[C@@]54C)C2CCC3(C)O)c1", "note": "(stereo partly drawn) [EM-6766]", "values": [{"measurement": "Androgen Receptor Binding (%) Human RBA R1881 = 100", "setting": "Human Androgen Receptor", "value": 55.9, "unit": "%"}, {"measurement": "IC50", "setting": "[1]; [2]", "value": 0.5, "unit": "nM"}]}, {"compound": "CCC[C@H](NC(CC)CC)c1cccc(OCC[C@]23CCC4C(CCC5CC(=O)CC[C@@]54C)C2CC[C@@H]3O)c1.Cl", "note": "(stereo partly drawn) [EM-6557]", "values": [{"measurement": "Androgen Receptor Binding (%) Human RBA R1881 = 100", "setting": "Human Androgen Receptor", "value": 31, "unit": "%"}, {"measurement": "IC50", "setting": "[1]; [3]", "value": 0.3, "unit": "nM"}]}, {"compound": "CCCCN1CCCCC1c1ccc(C)c(OCC[C@]23CCC4C(CCC5CC(=O)CC[C@@]54C)C2CC[C@@H]3O)c1", "note": "(stereo partly drawn) [EM-6261]", "values": [{"measurement": "Androgen Receptor Binding (%) Human RBA R1881 = 100", "setting": "Human Androgen Receptor", "value": "66% and 73%"}, {"measurement": "IC50", "setting": "[1]; [2]", "value": 6.4, "unit": "nM"}]}, {"compound": "O=C1C=C2CCC3C(CC[C@@]4(CCOc5cccc(C[S+]([O-])c6ccccc6)c5)C3CC[C@@H]4O)C2CC1", "note": "(stereo partly drawn) [EM-6847]", "values": [{"measurement": "Androgen Receptor Binding (%) Human RBA R1881 = 100", "setting": "Human Androgen Receptor", "value": 3.2, "unit": "%"}, {"measurement": "IC50", "setting": "[1]; [2]", "value": 46, "unit": "nM"}]}, {"compound": "CCCCS(=O)(=O)Cc1cccc(OCC[C@]23CCC4C5CCC(=O)C=C5CCC4C2CC[C@@H]3O)c1", "note": "(stereo partly drawn) [EM-6861]", "values": [{"measurement": "Androgen Receptor Binding (%) Human RBA R1881 = 100", "setting": "Human Androgen Receptor", "value": 3.0, "unit": "%"}, {"measurement": "IC50", "setting": "[1]; [2]", "value": 32, "unit": "nM"}]}, {"compound": "CCC(CC)NCc1ccc(C#N)c(OCC[C@]23CCC4C(CCC5CC(=O)CC[C@@]54C)C2CC[C@@H]3O)c1", "note": "(stereo partly drawn) [EM-6495]", "values": [{"measurement": "Androgen Receptor Binding (%) Human RBA R1881 = 100", "setting": "Human Androgen Receptor", "value": "83% and 102%"}, {"measurement": "IC50", "setting": "[1]; [2]", "value": 4.7, "unit": "nM"}, {"measurement": "IC50", "setting": "[1]; [3]", "value": 2.5, "unit": "nM"}]}, {"compound": "CCC(CC)NCc1ccc(F)c(OCC[C@]23CCC4C(CCC5CC(=NO)CC[C@@]54C)C2CC[C@@H]3O)c1", "note": "(stereo partly drawn) [EM-6409]", "values": [{"measurement": "Androgen Receptor Binding (%) Human RBA R1881 = 100", "setting": "Human Androgen Receptor", "value": 16, "unit": "%"}, {"measurement": "IC50", "setting": "[1]; [2]", "value": 1, "unit": "nM"}]}, {"compound": "CN(Cc1cccc(OCC[C@]23CCC4C(CCC5CC(=O)CC[C@@]54C)C2CC[C@@H]3O)c1)C1CCCCCCC1", "note": "(stereo partly drawn) [EM-6424]", "values": [{"measurement": "Androgen Receptor Binding (%) Human RBA R1881 = 100", "setting": "Human Androgen Receptor", "value": 136, "unit": "%"}, {"measurement": "IC50", "setting": "[1]; [2]", "value": 2.9, "unit": "nM"}]}, {"compound": "O=C1C=C2CCC3C(CC[C@@]4(CCOc5cccc(CNC6CCCCC6)c5)C3CC[C@@H]4O)C2CC1", "note": "(stereo partly drawn) [EM-6577]", "values": [{"measurement": "Androgen Receptor Binding (%) Human RBA R1881 = 100", "setting": "Human Androgen Receptor", "value": 3.4, "unit": "%"}, {"measurement": "IC50", "setting": "[1]; [2]", "value": 57, "unit": "nM"}]}, {"compound": "CCC(NC(C)C)c1cccc(OCC[C@]23CCC4C(CCC5=CC(=O)CC[C@@]54C)C2CC[C@@H]3O)c1", "note": "(stereo partly drawn) [EM-6960]", "values": [{"measurement": "Androgen Receptor Binding (%) Human RBA R1881 = 100", "setting": "Human Androgen Receptor", "value": 147, "unit": "%"}, {"measurement": "IC50", "setting": "[1]; [2]", "value": "< 0.1", "unit": "nM"}]}, {"compound": "CCC(NC1CCOCC1)c1cccc(OCC[C@]23CCC4C(CCC5CC(F)=CC[C@@]54C)C2CCC3O)c1", "note": "(stereo partly drawn) [EM-6996]", "values": [{"measurement": "Androgen Receptor Binding (%) Human RBA R1881 = 100", "setting": "Human Androgen Receptor", "value": 32, "unit": "%"}, {"measurement": "IC50", "setting": "[1]; [2]", "value": 37.3, "unit": "nM"}]}, {"compound": "CCC(CC)NCc1ccc(F)c(OCC[C@]23CCC4C(CCC5CC(=O)CC[C@@]54C)C2CC[C@@H]3OC)c1", "note": "(stereo partly drawn) [EM-6406]", "values": [{"measurement": "Androgen Receptor Binding (%) Human RBA R1881 = 100", "setting": "Human Androgen Receptor", "value": 226, "unit": "%"}, {"measurement": "IC50", "setting": "[1]; [2]", "value": 7.8, "unit": "nM"}]}, {"compound": "C[C@@H](c1cccc(OCC[C@]23CCC4C(CCC5CC(=O)CC[C@@]54C)C2CC[C@@H]3O)c1)N(C)C1CCCCC1", "note": "(stereo partly drawn) [EM-6413]", "values": [{"measurement": "Androgen Receptor Binding (%) Human RBA R1881 = 100", "setting": "Human Androgen Receptor", "value": "176% and 114%"}, {"measurement": "IC50", "setting": "[1]; [2]", "value": 0.1, "unit": "nM"}]}, {"compound": "CCC(NC1CCCC1)c1cccc(OCC[C@]23CCC4C(CCC5CC(=O)CC[C@@]54C)C2CC[C@@H]3O)c1", "note": "(stereo partly drawn) [EM-6537]", "values": [{"measurement": "Androgen Receptor Binding (%) Human RBA R1881 = 100", "setting": "Human Androgen Receptor", "value": 88, "unit": "%"}, {"measurement": "IC50", "setting": "[1]; [2]", "value": 0.4, "unit": "nM"}, {"measurement": "IC50", "setting": "[1]; [3]", "value": 0.3, "unit": "nM"}]}, {"compound": "CCC(NCC1CCCO1)c1ccnc(OCC[C@]23CCC4C(CCC5CC(=O)CC[C@@]54C)C2CC[C@@H]3O)c1", "note": "(stereo partly drawn) [EM-7104]", "values": [{"measurement": "Androgen Receptor Binding (%) Human RBA R1881 = 100", "setting": "Human Androgen Receptor", "value": 54.3, "unit": "%"}, {"measurement": "IC50", "setting": "[1]; [2]", "value": 2.8, "unit": "nM"}]}, {"compound": "C[C@H]1CCCCC1NCc1cccc(OCC[C@]23CCC4C(CCC5CC(=O)CC[C@@]54C)C2CC[C@@H]3O)c1", "note": "(stereo partly drawn) [EM-6438]", "values": [{"measurement": "Androgen Receptor Binding (%) Human RBA R1881 = 100", "setting": "Human Androgen Receptor", "value": 119, "unit": "%"}, {"measurement": "IC50", "setting": "[1]; [2]", "value": 2.2, "unit": "nM"}]}, {"compound": "CN(C)CC(NC1CCCCC1)c1cccc(OCC[C@]23CCC4C(CCC5CC(=O)CC[C@@]54C)C2CCC3O)c1", "note": "(stereo partly drawn) [EM-7131]", "values": [{"measurement": "Androgen Receptor Binding (%) Human RBA R1881 = 100", "setting": "Human Androgen Receptor", "value": 125.7, "unit": "%"}, {"measurement": "IC50", "setting": "[1]; [2]", "value": 35, "unit": "nM"}]}, {"compound": "CCC(NC1CCSCC1)c1cccc(OCC[C@]23CCC4C(CCC5CC(=O)CC[C@@]54C)C2CCC3O)c1", "note": "(stereo partly drawn) [EM-6844]", "values": [{"measurement": "Androgen Receptor Binding (%) Human RBA R1881 = 100", "setting": "Human Androgen Receptor", "value": 506, "unit": "%"}, {"measurement": "IC50", "setting": "[1]; [2]", "value": 2.1, "unit": "nM"}]}]}
